Patent publication US20120149080A1, “YEAST PRODUCTION CULTURE FOR THE PRODUCTION OF BUTANOL” (Butamax(TM) Advanced Biofuels LLC, priority 2010, published 2012)

Legend:
[1] = system: Issatchenkia orientalis PNY0576; assay: 24 h survival (CFU) of non-Saccharomyces yeast, HCD/LCD; format: cell-based; conditions: for Percent Survival HCD: high cell density; for Percent Survival LCD: low cell density
Method: (§1) Non-Saccharomyces yeast strains were tested to determine whether isobutanol tolerance is affected by cell density for these yeasts. Kluyveromyces marxianus PNY0577 (American Type Culture Collection (“ATCC”), Manassas, Va.; ATCC #8554), Kluyveromyces marxians PNY0578 (ATCC #16045), Pichia membranifaciens PNY0572, Pichia anomala PNY0573, Pichia sp. PNY0574, Issatchenkia orientalis PNY0575 and Issatchenkia orientalis PNY0576 were tested. The Pichia and Issatchenkia strains used are wild-type representatives of the designated genera. Other representative strains are commercially available, for example, from ATCC.
(§2) The non-Saccharomyces yeast strains were plated from freezer vials onto YPD agar (Teknova, Hollister, Calif.) and incubated overnight at 30° C. Cells from each strain from the YPD plates were inoculated into a 25 ml pre-culture of YPD broth) (Teknova, Hollister, Calif.) with an initial OD600 of 0.06 to 0.08 and grown for 7 hours in an aerobic shaker at 30° C. An aliquot of each pre-culture was inoculated into 200 ml YPD broth, to provide an initial OD600 of 0.06 to 0.08 and the resulting culture was incubated with aeration at 30° C. for approximately 17 hours. The optical density of the culture was measured, the culture was centrifuged and the cells were resuspended to yield an OD600 of 5 in fresh YPD broth. This is referred to as a high cell density (HCD) culture. This culture was diluted 100 fold into fresh YPD broth to give a culture with an OD600 of 0.05. This is referred to as a low cell density (LCD) culture. These cultures were incubated at 30° C. with shaking for 30 minutes for an acclimation period. At the end of the 30 minute acclimation period, the OD600 was measured.
(§3) 5 ml of low or high cell density culture was dispensed to 15 ml conical tubes which contained the concentrations of isobutanol to be tested. The tubes were placed in a rotary drum at 30° C. and incubated for 24 hours. The isobutanol concentration was 1.0% or 2.0%. A control culture for each strain contained no isobutanol. The time of addition of cells was “time 0”. […] All samples were filtered with Acrodisc CR PTFE 0.2 μm filters (Pall Life Sciences, Port Washington, N.Y.) and analyzed using a Shodex SH1011 column (8 mm ID×300 mm length; Showa Denko America, Inc., New York, N.Y.) and a Shodex SH-G as a guard column. The injection volume was 10 μL. The mobile phase was 0.01N sulfuric acid. The column temperature was 50° C. with a mobile phase flow rate of 0.5 mL/min. For detection, a photometric detector at 210 nm and a refractive index detector were used.
(§4) Colony forming units (CFUs) were determined on YPD plates at time 0 for the controls and at 24 hours for all samples, including the control cultures, using standard microbiological methods. Essentially, cells were serially diluted in a microtiter plate (20 μl of the culture and 180 μl of YPD broth) and 10 μl of the various dilutions were spotted onto triplicate agar plates and incubated at 30° C. for 24 and 48 hours. Colonies were counted after 48 hours and CFUs/ml were calculated. The percent survival was calculated based on the CFUs/ml of the 24 hour HCD or LCD control culture for each strain and results are given in Table 3.

[2] = system: Kluyveromyces marxianus PNY0577; assay: as above; format: cell-based; conditions: for Percent Survival HCD: high cell density; for Percent Survival LCD: low cell density
Method: as §1, §2, §3, §4

[3] = system: Kluyveromyces marxianus PNY0578; assay: as above; format: cell-based; conditions: for Percent Survival HCD: high cell density; for Percent Survival LCD: low cell density
Method: as §1, §2, §3, §4

Pichia anomala PNY0573 = assay: as above; format: cell-based; conditions: for Percent Survival HCD: high cell density; for Percent Survival LCD: low cell density
Method: as §1, §2, §3, §4

[4] = system: Pichia membranifaciens PNY0572; assay: as above; format: cell-based; conditions: for Percent Survival HCD: high cell density; for Percent Survival LCD: low cell density
Method: as §1, §2, §3, §4

Pichia sp. PNY0574 = assay: as above; format: cell-based; conditions: for Percent Survival HCD: high cell density; for Percent Survival LCD: low cell density
Method: as §1, §2, §3, §4

S. cerevisiae PNY0569 = assay: Glucose utilization rate under non-growing conditions in buffer; format: cell-based, Saccharomyces cerevisiae; conditions: PNY0569, 20 g/L isobutanol
Method: (§5) Isobutanol production may or may not be coupled to growth. Therefore we measured the glucose consumption rates under non-growing conditions using three different pH buffers.
(§6) Glucose consumption rates were determined in phosphate buffer pH 6.5 as outlined by Diderich, J. A., et al., Microbiology, 1999, 145 p. 3447-54. We also determined the glucose consumption rates at pH 5.25 and pH 4.0 using MES buffer.
(§7) Cells were grown overnight at 30° C. in YPD (125 ml in a 500 ml flask). Cells were centrifuged and resuspended in buffer (0.1M phosphate buffer pH 6.0 or 0.1M MES buffer pH 5.25 or 0.1M MES buffer pH 4.0), washed one time, and then resuspended such that each cell suspension had approximately 16 OD or 160 million cell/ml. 10 ml of these stock cells were transferred to flasks containing 10 ml of the corresponding buffer containing 40 g/L glucose and varying concentrations of isobutanol. At various times samples (500 to 700 ul) were transferred to a tube containing an equal volume of 10% TCA. Samples were centrifuged and glucose determined in the YSI glucose analyzer. Glucose consumption rates were determined by plotting the amount of glucose consumed over time.

S. cerevisiae PNY0602 = assay: as above; format: cell-based, Saccharomyces cerevisiae; conditions: PNY0602, 20 g/L isobutanol
Method: as §5, §6, §7

S. cerevisiae PNY0614 = assay: as above; format: cell-based, Saccharomyces cerevisiae; conditions: PNY0614, 20 g/L isobutanol
Method: as §5, §6, §7

In the case of `CC(C)CO` [Isobutanol, isobutanol], the “Percent Survival HCD” value ([1]; PNY0576, 1% isobutanol) is reported as 50%, the “Percent Survival LCD” value ([1]; PNY0576, 1% isobutanol) is reported as 12.8% and the “Percent Survival HCD” value ([1]; PNY0576, 2% isobutanol) is reported as <0.001%. For the same compound, the “Percent Survival LCD” value ([1]; PNY0576, 2% isobutanol) was <0.001%, the “Percent Survival HCD” value ([2]; PNY0577, 1% isobutanol) was 39.5% and the “Percent Survival LCD” value ([2]; PNY0577, 1% isobutanol) was 0.1%. The “Percent Survival HCD” value ([2]; PNY0577, 2% isobutanol) was <0.001%, the “Percent Survival LCD” value ([2]; PNY0577, 2% isobutanol) was <0.001% and the “Percent Survival HCD” value ([3]; PNY0578, 1% isobutanol) was 51%. For the same compound, the “Percent Survival LCD” value ([3]; PNY0578, 1% isobutanol) was <0.001%, the “Percent Survival HCD” value ([3]; PNY0578, 2% isobutanol) was <0.001% and the “Percent Survival LCD” value ([3]; PNY0578, 2% isobutanol) was <0.001%. The “Percent Survival HCD” value (Pichia anomala PNY0573; PNY0573, 1% isobutanol) was 75.6%, the “Percent Survival LCD” value (Pichia anomala PNY0573; PNY0573, 1% isobutanol) was 0.1% and the “Percent Survival HCD” value (Pichia anomala PNY0573; PNY0573, 2% isobutanol) was <0.001%. The “Percent Survival LCD” value (Pichia anomala PNY0573; PNY0573, 2% isobutanol) was <0.001%, the “Percent Survival HCD” value ([4]; PNY0572, 1% isobutanol) was 80.6% and the “Percent Survival LCD” value ([4]; PNY0572, 1% isobutanol) was 2.7%. For the same compound, the “Percent Survival HCD” value ([4]; PNY0572, 2% isobutanol) was <0.001%, the “Percent Survival LCD” value ([4]; PNY0572, 2% isobutanol) was <0.001% and the “Percent Survival HCD” value (Pichia sp. PNY0574; PNY0574, 1% isobutanol) was 100%. The “Percent Survival LCD” value (Pichia sp. PNY0574; PNY0574, 1% isobutanol) was 10%, the “Percent Survival HCD” value (Pichia sp. PNY0574; PNY0574, 2% isobutanol) was 100% and the “Percent Survival LCD” value (Pichia sp. PNY0574; PNY0574, 2% isobutanol) was 0.5%. For the same compound, the “Glucose Utilization (g/gdcw/h)” value (S. cerevisiae PNY0569; pH 4, non-growing) was 0.7 g/gdcw/h, the “Glucose Utilization (g/gdcw/h)” value (S. cerevisiae PNY0569; pH 5.25, non-growing) was 0.8 g/gdcw/h and the “Glucose Utilization (g/gdcw/h)” value (S. cerevisiae PNY0569; pH 6.5, non-growing) was 0.6 g/gdcw/h. For the same compound, the “Glucose Utilization (g/gdcw/h)” value (S. cerevisiae PNY0602; pH 4, non-growing) was 0.9 g/gdcw/h, the “Glucose Utilization (g/gdcw/h)” value (S. cerevisiae PNY0602; pH 5.25, non-growing) was 1.1 g/gdcw/h and the “Glucose Utilization (g/gdcw/h)” value (S. cerevisiae PNY0602; pH 6.5, non-growing) was 0.7 g/gdcw/h. The “Glucose Utilization (g/gdcw/h)” value (S. cerevisiae PNY0614; pH 4, non-growing) was 0.9 g/gdcw/h, the “Glucose Utilization (g/gdcw/h)” value (S. cerevisiae PNY0614; pH 5.25, non-growing) was 1.1 g/gdcw/h and the “Glucose Utilization (g/gdcw/h)” value (S. cerevisiae PNY0614; pH 6.5, non-growing) was 0.7 g/gdcw/h.
